Laboratory results: patent publication US20100183633A1, “INTERLEUKIN 6 AND TUMOR NECROSIS FACTOR ALPHA AS BIOMARKERS OF JNK INHIBITION” (UNIVERSITY OF MASSACHUSETTS, priority 2008, published 2010)

B1: IL6: inflammatory cytokine interleukin 6, given to mice by subcutaneous injection (1 μg/kg) (protein, UniProt P08505 25-211, looked up)
Interleukin-6: FPTSQVRRGDFTEDTTPNRPVYTTSQVGGLITHVLWEIVEMRKELCNGNSDCMNNDDALAENNLKLPEIQRNDGCYQTGYNQEICLLKISSGLLEYHSYLEYMKNNLKDNKKDKARVLQRDTETLIHIFNQEVKDLHKIVLPTPISNALLTDKLESQKEWLRTKTIQFILKSLEEFLKVTLRSTRQT

Tests used:
[1] = test system: N^KO and N^WT mice
Description: (§1) All studies with the selective ablation of the Jnk1 gene in the mouse nervous system were performed using male mice (8-24 wks old). The mice were treated with PTU in the drinking water (cherry-flavored Cool-Aid supplemented without or with 1.2 mM PTU (Sigma)). Body temperature was measured using a Microtherma 2 Type “T” Thermometer (Braintree Scientic Inc). Rip-CreESR mice were treated with 1 mg 4-hydroxytamoxifen (Sigma) by intraperitoneal injection once each day for 5 consecutive days.
N^KO and N^WT mice were treated with PTU in the drinking water and the effect of feeding a chow diet or a HFD was examined.

[2] = test system: Jnk1−/− mice; conditions: PTU-treated Jnk1−/− mice
Description: as §1

[3] = Blood IL6 concentration after subcutaneous IL6 injection; type: in vivo; conditions: IL6 1 μg/kg subcutaneous, HFD-fed F^KO mice, 90 mins post-injection, mean±SD, n=8
Description: (§2) FIG. 10E is a representation of an immunoblot to detect expression of SOCS3 and tubulin (control). F^WT and F^KO mice were fed a HFD (16 wks). F^KO mice were treated with IL6 (1 μg/kg) by subcutaneous injection. At 90 mins post-injection, the blood IL6 concentration was 44±9.1 pg/ml (mean±SD; n=8), the liver was isolated, and the expression of SOCS3 and Tubulin was examined by immunoblot analysis as set forth in Example 1.
Cytokine analysis: Cytokines in plasma, serum, and culture medium were measured by multiplexed ELISA using a Luminex 200 machine (Millipore) and serum mouse adipokine, adiponectin and cytokine kits (Millipore). Insulin and insulin C-peptide in plasma were measured by ELISA using a Luminex 200 machine. Blood glucose was measured with an Ascensia Breeze 2 glucose meter (Bayer). Alanine transaminase (ALT) and aspartate aminotransferase (AST) activity in serum was measured using the ALT and AST Reagent kit (Pointe Scientific) with a Tecan Sapphire […] microplate reader (Tecan Trading AG).

[4] = test system: SOCS3; experiment: Hepatic SOCS3 expression by immunoblot after IL6 treatment; type: in vivo; conditions: acute IL6 1 μg/kg s.c., HFD-fed F^KO mice, liver at 90 mins; compared with HFD-fed F^WT
Description: as §2
(§3) Immunoblot analysis: Tissue extracts were prepared using Triton lysis buffer [20 mM Tris (pH 7.4), 1% Triton X-100, 10% glycerol, 137 mM NaCl, 2 mM EDTA, 25 mM β-glycerophosphate, 1 mM sodium orthovanadate, 1 mM phenylmethylsulfonyl fluoride, and 10 μg/mL of aprotinin and leupeptin]. […] Immunocomplexes were detected by enhanced chemiluminescence (NEN). Quantitation of immunoblots was performed using the Odyssey™ infrared imaging system (LI-COR Biosciences). The amount of total and phospho-JNK1/2, cJun, ERK1/2, p38 MAPK, and AKT in tissue extracts was measured by multiplexed ELISA using a Luminex 200 instrument (Millipore) […]

[5] = test system: HFD-fed F^KO mice; experiment: Insulin tolerance test after IL6 treatment; type: in vivo; conditions: IL6 1 μg/kg s.c., then insulin 0.75 mU/g i.p. after 90 mins; HFD-fed F^KO vs HFD-fed F^WT
Description: FIG. 10F is a graph of the glucose concentration during an ITT in which mice were treated by subcutaneous injection with IL6 (1 μg/kg) and then treated (after 90 mins) with insulin (0.75 mU/g) by intraperitoneal injection. Statistically significant differences between F^KO and F^WT mice are indicated (*, P<0.05; **, P<0.01).
Glucose tolerance, insulin tolerance, pyruvate challenge, and insulin clearance tests: The mice were fed a standard chow diet or a high fat diet (Iso Pro 3000, Purina and F3282, Bioserve Inc.) for 16 wks. Glucose tolerance tests (GTT), insulin tolerance tests (ITT), and pyruvate challenge tests were performed using methods described by Mora et al., FEBS Lett., 579, 3632 (2005). For GTT, mice fasted overnight were injected intraperitoneally with glucose (1 mg/g) and blood glucose concentration was measured over time. For ITT, mice fed ad libitum were injected intraperitoneally with insulin (0.75 mU/g) and blood glucose concentration was measured over time. In some ITT experiments, blood glucose concentration was measured at 30 minutes and the area under the curve (AUC) was calculated. For pyruvate challenge tests, mice fasted overnight were injected intraperitoneally with pyruvate (1 mg/g) and blood glucose concentration was measured over time. […]

[6] = test system: AKT; experiment: Insulin-stimulated AKT activation (immunoblot) after IL6 treatment; type: in vivo; conditions: IL6 1 μg/kg s.c., insulin 0.3 mU/g i.v. after 90 mins, HFD-fed F^KO mice
Description: FIGS. 10G and 10H are representations of immunoblots to detect AKT, phospho-AKT, and tubulin in liver (G) and epididymal fat pads (H). HFD-fed F^KO mice were subcutaneously injected with IL6 (1 μg/kg) and after 90 mins, intravenously injected with insulin (0.3 mU/g). The liver (G) and epididymal fat pads (H) were isolated after 5 mins and examined by immunoblot analysis as set forth in Example 1.
as §3

Row | Molecule | expression of thyroid hormone responsive genes in intrascapular brown fat ([1]; PTU 1.2 mM in drinking water, NKO mice) | body weight when fed a HFD, N^KO vs N^WT ([1]; PTU in drinking water 12 wks, diet groups after 2 wks) | blood glucose, insulin, leptin and resistin concentrations and body temperature, N^KO vs N^WT ([1]; after 12 wks of PTU, chow-fed and HFD-fed) | metabolic phenotypes of NKO mice ([1]; inhibition of thyroid hormone by PTU-treatment) | effect of whole body JNK1-deficiency on HFD-induced weight gain, hyperglycemia, glucose intolerance, insulin sensitivity, glucose-induced insulin release [2] | blood IL6 concentration [3] [pg/mL] | hepatic SOCS3 expression [4] | insulin resistance in insulin tolerance test [5] | effect on AKT activation in the adipose tissue ([6]; epididymal fat pads) | insulin-stimulated AKT activation in the liver ([6]; liver)
1 | CCCc1cc(=O)[nH]c(=S)[nH]1 [PTU, propylthiouracil] | suppressed the increased expression of thyroid hormone responsive genes | No statistically significant differences | No significant differences | markedly suppressed the metabolic phenotypes | significantly suppressed the effect of whole body JNK1-deficiency | – | – | – | – | –
2 | B1 | – | – | – | – | – | 44 ± 9.1 | increased hepatic SOCS3 expression | became equally insulin resistant | only a moderate effect | reduced insulin-stimulated AKT activation
